# From patent US20220088031A1, “METHODS AND COMPOSITIONS FOR TREATING RESISTANT AND RECURRENT FORMS OF CANCER” (Health Research, Inc., priority 2019, published 2022)
# How the values were obtained:
# [1] = test system: E006AA cells; experiment: Seahorse XF bioenergetics assay, glycolytic reserve capacity; format: cell-based, human; settings: for glycolytic reserve capacity: in the presence of DOC, compared to control or DOC alone
# Description: Seahorse XF bioenergetics assay: Basal glycolytic reserve capacity in PC-3, DU145, and […] PCa cells was assessed using an Agilent seahorse XF glycolytic stress test kit (Agilent Technologies Inc., Wilmington, Del.) and a Seahorse XF96 analyzer (Agilent Technologies Inc., Wilmington, Del.) analyzer as described. ATP production in […] cells after treatment with drug combinations was assessed using a Mito Stress test kit (Agilent Technologies Inc., Wilmington, Del.).
# [2] = test system: RC-77 T/E cells; experiment: Cell death, DEVDase activity and CC expression in a second AA PCa cell line; format: cell-based, human; settings: both AA PCa cell lines; for CC expression / caspase-3 activity: DOC with or without inhibitor, 24 hrs; for cell death: not as effective as in CA PCa cells
# Description: (§1) Immunoblotting: Immunoblotting was performed as described previously. Protein lysates were prepared using a lysis in NP-40 buffer (50 mM Tris-HCl pH 7.4, 150 mM NaCl, 1 mM EDTA, 1 mM EGTA, 1% NP-40) supplemented with protease and phosphatase inhibitor cocktail. Protein content was quantified using a micro BCA protein estimation kit (Thermo Scientific, Waltham, Mass.; Cat #23235). Protein samples were resolved on 4-20% Criterion gels, transferred on nitrocellulose membranes (BioRad, Hercules, Calif.) and subjected to immunoblotting. Membranes were blocked in 5% fat free dry milk (Blotto, Santa Cruz, Dallas, Tex.; Cat #sc-2324) prepared in PBS-T (Tween-20) and incubated overnight in primary antibodies (1:1000 dilution) at 4° C. with continuous shaking. After washing with PBS-T, membranes were incubated in HRP conjugated anti-mouse or anti-rabbit secondary antibody at room temperature for 1 hr. After washing with PBS-T, proteins were detected using Clarity chemiluminescent reagent (BioRad, Hercules, Calif.; Cat #1705061) and X-Ray films (ASI, Fort Lauderdale, Fla.; Cat #XR1570). Membranes were stripped using stripping buffer and probed with HRP conjugated beta-actin antibody to ensure equal loading of proteins.
# (§2) Cell viability assay: PCa cells (5×10^4 cells/well) were seeded on 6-well cell culture plates and incubated with DOC (1-20 nM) for 24 hrs. Floating and attached cells were collected using trypsinization. Live and dead cells were counted under a light microscope using a trypan blue exclusion assay.
# (§3) Caspase-3 (DEVDase) activity assay: PCa cell lysates prepared in NP40 lysis buffer were incubated with DEVD-AFC (caspase-3 substrate) at 37° C. for 90 min in caspase activity assay buffer (50 mM HEPES pH 7.4, 150 mM NaCl, 1% CHAPS, 1 mM EDTA, 1 mM DTT, 50% glycerol). Fluorescence intensity was detected using a Synergy microplate reader at excitation and emission wavelengths of 400 nm and 508 nm, respectively. Arbitrary fluorescence units were normalized with protein content of cell lysates and represented as fold change compared to control groups.
# [3] = test system: E006AA cells; experiment: Clonogenic assay; format: cell-based, human
# Description: Clonogenic assay: PCa cells were seeded in each well of 6 well cell culture plates. Cells were treated and plates were incubated in a CO2 cell culture incubator for 6 more days. Colonies were fixed in 10% formalin first and stained with 0.5% crystal violet solution. Plates were dried and pictures were captured using a Gel documentation system and Coomassie blue filter (Bio Rad, Hercules, Calif.).
# [4] = test system: E006AA cells; experiment: Mitochondrial ROS production, MitoSOX dye, flow cytometry; format: cell-based, human
# [5] = test system: E006AA hT xenografts; experiment: Human PCa xenograft study; format: in vivo, SCID mice; settings: 3 weeks
# Description: Human PCa xenograft study: SCID (C.B-Igh-1^b/IcrTac-Prkdc^[…]) mice (6 weeks old) were purchased from an in house colony maintained by Roswell Park Laboratory Animal Shared Resource. Animal protocols were approved by the Roswell Park Institutional Animal Care and Use Committee (IACUC protocol #1306M). E006AA hT cells (80% confluency) were harvested and live cells quantified. Harvested cells were washed and resuspended in serum-free DMEM/F-12 (1:1) mix. Four ×10^6 E006AA hT cells were mixed with Matrigel (1:1) and injected subcutaneously in the right and left flanks of each mouse. When xenograft tumors reached 5 mm in diameter (22 days post injection), mice were randomly divided into 6 groups of 4 mice. First group received 100 μl Neobee M5 oil (vehicle) and 100 μl normal saline each twice weekly. Second group received 100 μl Neobee M5 oil and DOC (6 mg/kg bw) twice weekly. Third group received 10058-F4 (20 mg/kg bw) and DOC (6 mg/kg bw) twice weekly. Fourth group received JSH-23 (3 mg/kg bw) and DOC (6 mg/kg bw) twice weekly. Fifth group received 10058-F4 (20 mg/kg bw) and normal saline twice weekly. Sixth group received JSH-23 (3 mg/kg bw) and normal saline twice weekly. All treatments were administered for 3 weeks. Mice were euthanized, tumors were excised and flash frozen in liquid nitrogen. The tissue lysates were used for caspase-3 activity and Western blotting of CC, cleaved PARP, and cleaved caspase-3 proteins.
# as §1, §3
# [6] = test system: Nrf1 binding with CC promoter in E006AA cells; experiment: Chromatin immunoprecipitation (ChIP) assay, Nrf1 binding with CC promoter; format: cell-based, human
# Description: Chromatin immunoprecipitation (ChIP) assay: The association of Nrf1 transcription factor with CYCS promoter within the LNCaP and E006AA cells was detected using a chromatin immunoprecipitation (ChIP) Assay Kit (Millipore, Billerica, Mass.; Cat #17-295) according to the manufacturer's instructions. In brief, 1 million cells were fixed in formaldehyde for 15 min and chromatin was sheared using Bioruptor sonication device for 10 min in ice with 30 sec on/off cycle (Diagenode, Denville, N.J.). Ten μ1 sonicated samples (of 2 ml total volume) were separated as input. Chromatin was immunoprecipitated with 1.0 μg of Nrf1 or normal rabbit IgG (Santa Cruz Biotechnology) antibody at 4° C. overnight. Each sample (5 μl) was used as a template for PCR amplification and 20 μl of the 50 μl PCR product was loaded onto agarose gels. CYCS oligonucleotide sequence encompasses the CYCS promoter segment that includes the Nrf1 binding sites for PCR primers viz 5′-[…]-3′ [SEQ ID:7] and 5′-[…]-3′ [SEQ ID:8]. PCR mixtures were amplified for 1 cycle at 94° C. for 5 min followed by 35 cycles at 94° C. for 30 s, 55° C. for 30 s and 72° C. for 30 s, and then subjected to final elongation at 72° C. for 10 min. PCR products were run on 2% agarose gel and analyzed using ethidium bromide staining.
# [7] = test system: E006AA cells; experiment: Cell death quantification, Trypan blue exclusion assay; format: cell-based, human; settings: combined treatment with DOC (24 hrs)
# Description: as §2
# [8] = in combination with DOC (6 mg/kg bw) twice weekly
# [9] = inhibitor alone, 10058-F4 20 mg/kg bw or JSH-23 3 mg/kg bw twice weekly
Compound,glycolytic reserve capacity [1],CC expression [2],caspase-3 activity [2],cell death [2],colony forming ability (CFA) ([3]; with DOC),colony forming ability (CFA) ([3]; without DOC),MitoROS production ([4]; agent alone),MitoROS production ([4]; in combination with DOC),"CC expression in xenografts [5, 8]","PARP cleavage in xenografts [5, 8]","caspase-3 activation in xenografts [5, 8]","CC expression in xenografts [5, 9]",binding of Nrf1 to the CC promoter ([6]; agent alone),binding of Nrf1 to the CC promoter ([6]; combined with DOC (24 hrs)),cell death [7],glycolytic reserve ([1]; agent alone)
"Cc1ccc(NCCCc2ccccc2)c(N)c1 [NF-κB inhibitor, JSH-23]",inhibited glycolytic reserve capacity,induced CC expression,activated caspase-3 activity,enhanced cell death,reduced the CFA,reduced the CFA,MitoROS production,MitoROS production,further upregulated,PARP cleavage,caspase-3 activation,induced CC expression,enhanced binding of Nrf1 to the CC promoter,enhanced binding of Nrf1 to the CC promoter,enhanced cell death,–
"CCc1ccc(/C=C2/SC(=S)NC2=O)cc1 [c-Myc inhibitor, 10058-F4]",inhibited glycolytic reserve capacity,induced CC expression,activated caspase-3 activity,enhanced cell death,reduced the CFA,reduced the CFA,–,–,further upregulated,PARP cleavage,caspase-3 activation,induced CC expression,enhanced binding of Nrf1 to the CC promoter,enhanced binding of Nrf1 to the CC promoter,enhanced cell death,–
bisperoxovanadium 5-hydroxipyridine [AKT activator],inhibited glycolytic reserve capacity,–,–,–,reduced the CFA,reduced the CFA,MitoROS production,MitoROS production,–,–,–,–,enhanced binding of Nrf1 to the CC promoter,enhanced binding of Nrf1 to the CC promoter,enhanced cell death,inhibited glycolytic reserve
